Results taken from ChEMBL document CHEMBL1127607, “Genetically evolved receptor models: a computational approach to construction of receptor models” (J Med Chem, 1994).

Species on record: Homo sapiens
Test: Potency based on concentration of sweetener which matches the sweetness recognition threshold of sucrose (~2%)
Type: functional, organism-based

Compound | Log potency
N#Cc1ccc(N/C(S)=N/CCC(=O)O)cc1 | 3.32
CC(NC(=O)C(N)CC(=O)O)C(=O)NC1C(C)(C)CCC1(C)C (configuration not stated) | 2.9
N#Cc1ccc(N/C(=N/CC(=O)O)NS(=O)(=O)c2ccccc2)cc1 | 4.48
COC(=O)C(Cc1ccccc1)NC(=O)C(CC(=O)O)/N=C(\S)Nc1ccc(C#N)cc1 (configuration not stated) | 4.7
C[C@@H](N/C(=N\CC(=O)O)Nc1ccc(C#N)cc1)c1ccccc1 | 4.45
C[C@@H](N/C(=N\CC(=O)O)Nc1cc(Cl)cc(Cl)c1)c1ccccc1 | 5.08
O=C(O)CCNC(=O)Nc1ccc([N+](=O)[O-])cc1 | 2.85
N#Cc1ccc(NC(=O)NC(CC(=O)O)c2ccccc2)cc1 (configuration not stated) | 4
CC(NC(=O)C(N)CC(=O)O)C(=O)NC1CCCC1 (configuration not stated) | 1.7
CC12CCC(C1)C(C)(C)C2OC(=O)C(NC(=O)C(N)CC(=O)O)c1cccs1 (configuration not stated) | 3.38
O=C(O)C/N=C(\NCc1ccccc1)Nc1cc(Cl)cc(Cl)c1 | 4.9
CC12CCC(C1)C(C)(C)C2OC(=O)C(NC(=O)C(N)CC(=O)O)c1ccco1 (configuration not stated) | 4.22
N#Cc1ccc(N/C(=N/CC(=O)O)NCc2ccccc2)cc1 | 4.48
N#CN/C(=N\CCC(=O)O)Nc1ccc(C#N)cc1 | 2.95
N#Cc1ccc(N/C(=N/CC(=O)O)NC2CCCCCCC2)cc1 | 5.23
N#Cc1ccc(NC(=O)NCCC(=O)O)cc1 | 2.65
N#Cc1ccc(NC(=O)NC(CC(=O)O)c2cccnc2)cc1 (configuration not stated) | 4.3
COC(=O)C(Cc1ccccc1)NC(=O)C(CC(=O)O)NC(=O)Nc1ccc(C#N)cc1 (configuration not stated) | 4
N#Cc1ccc(NC(=O)NC(CC(=O)O)c2ccncc2)cc1 (configuration not stated) | 3.3
COC(=O)[C@H](Cc1ccccc1)NC(=O)[C@@H](N)CC(=O)O | 2.26
N#CN/C(=N\CC(=O)O)Nc1ccc(C#N)cc1 | 3.85
CC(NC(=O)C(N)CC(=O)O)C(=O)NC1C(C)(C)SC1(C)C (configuration not stated) | 3.3
